In patent publication US6372774B1, “Derivatives of N-phenylpyrazoles” (Rhone-Poulenc Agriculture Ltd., priority 1985, dated 2002):
Read-outs that look alike come from different tables or passages of the source.

Tests used:
Format in all cases: in vivo
[1] = tested on: Plutella xylostella (Diamond-back Moth); test: whole plant or invertebrate; conditions: foliar; for mortality at 500 ppm: read-out: mortality of larvae of Plutella xylostella; for pest or weed control at 500 ppm: read-out: Plutella % m 500 ppm
Description: (§1) One or more dilutions of the compounds to be tested were made in 50% aqueous acetone.
(§2) a) Test species: Plutella xylostella (Diamond-back Moth) and Phaedon cochleariae (Mustard Beetle)
(§3) Turnip leaf discs were set in agar in petri-dishes and infected with 10 larvae (2nd instar Plutella or 3rd instar Phaedon). Four replicate dishes were assigned to each treatment and were sprayed under a Potter Tower with the appropriate test dilution. Four or five days after treatment the dishes were removed from the constant temperature (25° C.) room in which they had been held and the mean percentage mortalities of larvae were determined.

[2] = tested on: Phaedon cochleariae (Mustard Beetle); test: Test 3 a): leaf disc spray test, Phaedon cochleariae larvae; conditions: for pest or weed control at 10 ppm / mortality at 5 ppm: Phaedon cochleariae, foliar; for pest or weed control at 10 ppm: read-out: Phaedon % m 10 ppm; for mortality at 5 ppm: read-out: mortality of larvae of Phaedon cochleariae
Description: as §1, §2, §3

[3] = tested on: Megoura viciae (Vetch Aphid); test: Test 3 b): spray of infested tic bean plants, Megoura viciae; conditions: for Megoura score/12 50 ppm: Tables 1 and 3, sum of scores 0-3 of 4 replicates; for score from 4 replicates, Megoura viciae: Test 3 method (b), application of 50 ppm, score 0-3 per replicate, maximum 12; for mortality at 50 ppm: Megoura viciae, read-out: mortality of Megoura viciae
Description: as §1
b) Megoura viciae (Vetch Aphid)
Potted tic bean plants previously infected with mixed stages of Megoura were sprayed to run-off using a laboratory turntable sprayer. Treated plants were held in a greenhouse for 2 days and were assessed for aphid mortality using a scoring system, judging the response in comparison with plants treated with 50% aqueous acetone alone, as controls.

[4] = Tables 1-3, % mortality at 10 ppm

Compound	pest or weed control at 10 ppm [2] [%]	score from 4 replicates, Megoura viciae [3]	mortality at 50 ppm [3] [%]	mortality at 5 ppm [2] [%]	also measured
N#Cc1c(Br)nn(-c2c(Cl)cc(C(F)(F)F)cc2Cl)c1N [Compound 115, 5-Amino-3-bromo-4-cyano-1-(2,6-dichloro-4-trifluoromethylphenyl)pyrazole]	100				mortality at 500 ppm [1]: 100%; Megoura score/12 50 ppm [3]: 10
5-Amino-3-chlorodifluoromethyl-1-(2,6-dichloro-4-trifluoromethylphenyl)-4-cyanopyrazole [Compound 128]		12			Phaedon % m 10 ppm [2, 4]: 100%
Cc1nn(-c2c(Cl)cc(C(F)(F)F)cc2Cl)c(N)c1[N+](=O)[O-] [Compound 191, 5-Amino-1-(2,6-dichloro-4-trifluoromethylphenyl)-3-methyl-4-nitropyrazole]		12	100		
CC(C)(C)[Si](C)(C)c1c(C#N)c(C(F)(F)F)nn1-c1c(Cl)cc(C(F)(F)F)cc1Cl [Compound 206, 5-tert.-Butyldimethylsilyl-4-cyano-1-(2,6-dichloro-4-trifluoromethylphenyl)-3-trifluoromethylpyrazole]		12	100	100	
N#Cc1c(C(F)(F)F)nn(-c2c(Cl)cc(SC(F)(F)F)cc2Cl)c1N [Compound 165, 5-Amino-4-cyano-1-(2,6-dichloro-4-trifluoromethylthiophenyl)-3-trifluoromethylpyrazole]		12	100	100	
CN(C)S(=O)(=O)c1c(C(F)(F)F)nn(-c2c(Cl)cc(C(F)(F)F)cc2Cl)c1N [Compound 153, 5-Amino-1-(2,6-dichloro-4-trifluoromethylphenyl)-4-(N,N-dimethylsulphamoyl)-3-trifluoromethylpyrazole]	100				Megoura score/12 50 ppm [3]: 11
5-Amino-3-chlorofluoromethyl-4-cyano-1-(2,6-dichloro-4-trifluoromethylphenyl)pyrazole [Compound 166]		12			
Cc1nn(-c2c(Cl)cc(C(F)(F)F)cc2Cl)c(N)c1C#N [Compound 112, 5-Amino-4-cyano-1-(2,6-dichloro-4-trifluoromethylphenyl)-3-methylpyrazole]	98	12	100		
Cc1nn(-c2c(Cl)cc(C(F)(F)F)cc2Cl)c(N)c1S(C)(=O)=O [Compound 161, 5-Amino-1-(2,6-dichloro-4-trifluoromethylphenyl)-4-methanesulphonyl-3-methylpyrazole]		12	100	100	
CCSc1c(C)nn(-c2c(Cl)cc(C(F)(F)F)cc2Cl)c1N [Compound 225, 5-Amino-1-(2,6-dichloro-4-trifluoromethylphenyl)-4-ethylthio-3-methylpyrazole]		12	100		
N#Cc1nn(-c2c(Cl)cc(SC(F)(F)F)cc2Cl)c(N)c1C#N [Compound 156, 5-Amino-3,4-dicyano-1-(2,6-dichloro-4-trifluoromethylthiophenyl)pyrazole]		12	100		
Cc1nn(-c2c(Cl)cc(C(F)(F)F)cc2Cl)c(N)c1S(=O)(=O)C(Cl)(Cl)Cl [Compound 224, 5-Amino-1-(2,6-dichloro-4-trifluoromethylphenyl)-4-trichloromethanesulphonyl-3-methylpyrazole]		12	100	100	
CSc1c(C)nn(-c2c(Cl)cc(C(F)(F)F)cc2Cl)c1N [Compound 226, 5-Amino-1-(2,6-dichloro-4-trifluoromethylphenyl)-3-methyl-4-methylthiopyrazole]		12	100	100	
N#Cc1c(C(F)(F)C(F)(F)C(F)(F)F)nn(-c2c(Cl)cc(C(F)(F)F)cc2Cl)c1N [Compound 155, 5-Amino-4-cyano-1-(2,6-dichloro-4-trifluoromethylphenyl)-3-heptafluoropropylpyrazole]					pest or weed control at 500 ppm ([1]; Tables 1-2, % mortality at 500 ppm): 96%; pest or weed control at 10 ppm [2, 4]: 100%
CCOC(=O)N(C(=O)OCC)c1c(C#N)c(C(F)(F)F)nn1-c1c(Cl)cc(C(F)(F)F)cc1Cl [Compound 145, 4-Cyano-1-(2,6-dichloro-4-trifluoromethylphenyl)-5-bis(ethoxycarbonyl)amino-3-trifluoromethylpyrazole]	100				mortality at 500 ppm ([1]; Test 3 method (a), application of 500 ppm): 100%
Cc1nn(-c2c(Cl)cc(C(F)(F)F)cc2Cl)c(N)c1I [Compound 190, 5-Amino-1-(2,6-dichloro-4-trifluoromethylphenyl)-4-iodo-3-methylpyrazole]		12	100		
N#Cc1c(C(F)(F)F)nn(-c2c(Cl)cc(C(F)(F)F)cc2Cl)c1Br [Compound 141, 5-Bromo-4-cyano-1-(2,6-dichloro-4-trifluoromethylphenyl)-3-trifluoromethylpyrazole]	100				pest or weed control at 500 ppm [1]: 44%
N#Cc1cn(-c2c(Cl)cc(C(F)(F)F)cc2Cl)nc1[N+](=O)[O-] [Compound 200, 1-(2,6-Dichloro-4-trifluoromethylphenyl)-4-cyano-3-nitropyrazole]		12	100		
CC[S+]([O-])c1c(C(F)(F)F)nn(-c2c(Cl)cc(C(F)(F)F)cc2Cl)c1N (centres unmarked) [Compound 217, 5-Amino-1-(2,6-dichloro-4-trifluoromethylphenyl)-4-ethylsulphinyl-3-trifluoromethylpyrazole]		12	100	100	
N#Cc1nn(-c2c(Cl)cc(C(F)(F)F)cc2Cl)c([N+](=O)[O-])c1C#N [Compound 201, 1-(2,6-Dichloro-4-trifluoromethylphenyl)-3,4-dicyano-5-nitropyrazole]		12	100		
CCSNc1c(C#N)c(C)nn1-c1c(Cl)cc(C(F)(F)F)cc1Cl [Compound 117, 4-Cyano-1-(2,6-dichloro-4-trifluoromethylphenyl)-3-methyl-5-ethanesulphenylaminopyrazole]	68				Megoura score/12 at 10 ppm ([3]; Table 3, value marked +: score at 10 ppm): 10+
CN(C)c1c(C#N)c(C(F)(F)F)nn1-c1c(Cl)cc(C(F)(F)F)cc1Cl [Compound 136, 4-Cyano-1-(2,6-dichloro-4-trifluoromethylphenyl)-5-dimethylamino-3-trifluoromethylpyrazole]	56				mortality at 500 ppm [1]: 100%
CCOC(=O)Nc1c([N+](=O)[O-])c(C(F)(F)F)nn1-c1c(Cl)cc(C(F)(F)F)cc1Cl [Compound 179, 1-(2,6-Dichloro-4-trifluoromethylphenyl)-5-ethoxycarbonylamino-4-nitro-3-trifluoromethylpyrazole]				100	mortality at 500 ppm [1]: 100%
CSc1c(C(F)(F)F)nn(-c2c(Cl)cc(C(F)(F)F)cc2Cl)c1N [Compound 229, 5-Amino-1-(2,6-dichloro-4-trifluoromethylphenyl)-4-methylthio-3-trifluoromethylpyrazole]				100	mortality at 500 ppm [1]: 100%
CNc1c(C#N)c(C(F)(F)F)nn1-c1c(Cl)cc(C(F)(F)F)cc1Cl [Compound 138, 4-Cyano-5-methylamino-1-(2,6-dichloro-4-trifluoromethylphenyl)-3-trifluoromethylpyrazole]	100				mortality at 500 ppm [1]: 100%
COC(=O)c1c(C(F)(F)F)nn(-c2c(Cl)cc(C(F)(F)F)cc2Cl)c1N [Compound 132, 5-Amino-1-(2,6-dichloro-4-trifluoromethylphenyl)-4-methoxycarbonyl-3-trifluoromethylpyrazole]	100				pest or weed control at 500 ppm [1]: 10%
Nc1c(Cl)c(C(F)(F)F)nn1-c1c(Cl)cc(C(F)(F)F)cc1Cl [Compound 148, 5-Amino-4-chloro-1-(2,6-dichloro-4-trifluoromethylphenyl)-3-trifluoromethylpyrazole]	21				pest or weed control at 500 ppm [1]: 98%
O=[N+]([O-])c1cn(-c2c(Cl)cc(C(F)(F)F)cc2Cl)nc1C(F)(F)F [Compound 193, 1-(2,6-Dichloro-4-trifluoromethylphenyl)-4-nitro-3-trifluoromethylpyrazole]				100	mortality at 500 ppm [1]: 100%
CC(C)(C)C(=O)Nc1c(C#N)c(C(F)(F)F)nn1-c1c(Cl)cc(C(F)(F)F)cc1Cl [Compound 139, 4-Cyano-1-(2,6-dichloro-4-trifluoromethylphenyl)-5-(2,2-dimethylpropionamido)-3-trifluoromethylpyrazole]	16				mortality at 500 ppm [1]: 100%
